# In paper PMC3422259, “Additive Mixture Effects of Estrogenic Chemicals in Human Cell-Based Assays Can Be Influenced by Inclusion of Chemicals with Differing Effect Profiles” (PLoS ONE, 2012):
# Like-named read-outs stand apart in the source and are kept apart here.
# Legend:
# [1] = tested on: MCF-7 cells; experiment: Estrogenicity assay, mitogenic endpoint (ESCREEN); design: Emax: dose or concentration left out as unconfirmed
# Method: The ESCREEN assay was performed using cloned MCF-7 cells (described in [6], gifted from A. Soto, Boston) and the established ESCREEN method was followed using an adapted 96-well format. Cells were cultured in DMEM (5% FCS). For experiments, cells were seeded in clear polystyrene 96 well plates at a density of 2,500 cells/well and allowed to attach for 24 hours before washing with rinse media (phenol red-free DMEM, no supplements). […] Test chemicals were dissolved in ethanol to give stock solutions of millimolar concentrations. Test and control solutions were diluted prior to application in dosing media (phenol red free DMEM, 10% charcoal-dextran stripped FCS). The final concentration of ethanol was 0.5% in test and control wells. […] At all stages, media removal from cells was carried out gently and in a controlled fashion by use of an electronic multichannel pipette set to the lowest speed possible. Controls were run as eight replicate wells per plate and compounds were tested in a dilution series comprising eight concentrations, each concentration tested in two replicate wells per plate. The plate layout was designed to reduce variation due to evaporation and spreading of test chemicals, and had been previously optimised in the laboratory. After application of test solutions, plates were incubated for 120 hours before fixation with 10% trichloroacetic acid and sulforhodamine B (SRB) staining to measure protein and allow the indirect quantification of cell number.
# (§1) Experiments were performed on different days meaning that results for different dilution series and different batches of the test chemicals were obtained on different days. Each single chemical was tested in three or more independent experiments. Use of normalisation meant that data from different experiments could be reliably combined and compared, as discussed previously. Data was expressed relative to the positive control, rather than as fold change from the vehicle response, for two reasons.
# (§2) Results from regression analysis for each test chemicals were used to predict the CA effect for fixed-ratio mixtures designed on 1) equi-effective concentrations (balanced design), 2) possible human serum levels (non-balanced design). The original mathematical formulation of CA that defines for a mixture composed of n components with concentration c1 of the first component, c2 of the second component, and cn for the n-th component a combination effect X is [drawing 1] (1) Here, ECX1, ECX1 …, ECXn are the concentrations of the individual components that on their own produce the same effect X as the mixture, [15] The quotients cn/ECXn are called toxic units and scale all compounds in the mixture relative to their toxicity. They can be interpreted as the contribution of the compound to the total mixture concentration that is expected to produce the mixture effect X. According to equation 1, a mixture effect for a pre-defined effect level X is described only implicitly. However, if the individual concentrations ci are expressed as relative fractions pi to the total mixture concentration ECxMix, then equation 1 can be re-arranged to [drawing 2] (2) which allows the direct calculation of the mixture concentration that is expected to produce the mixture effect X. To form a prediction curve, equation 2 is iterated through for various effect levels resulting in sets of effects and their associated predicted mixture concentration which are then plotted to produce a graph of the effect prediction.
# Both equations 1 and 2 require knowledge of the concentration of each mixture component that on its own produces the effect magnitude under consideration. For this reason, these equations cannot be used for predicting mixture effects that exceed the maximal effect of the least efficacious component, because those effect concentrations cannot be defined.
# [2] = tested on: T47D-KBluc cells; experiment: cells; design: Emax: dose or concentration left out as unconfirmed
# Method: T47D-KBluc cells were obtained from the ATCC and the protocol established by the depositing authors was followed. Cells were routinely grown in RPMI media (with 10% foetal calf serum (FCS)). For seven days prior to experiments, cells were maintained in low estrogen conditions by the use of pre-assay media (RPMI, 10% charcoal-dextran stripped FCS, no antibiotics). For experiments, cells were seeded in white polystyrene 96 well plates at a density of 10,000 cells/well and allowed to attach for 24 hours before removal of media, and application of test chemicals. Test chemicals were dissolved in ethanol to give stock solutions of millimolar concentrations. Test and control solutions were obtained by dilution of ethanolic stocks in dosing media (phenol red-free RPMI, 5% charcoal-dextran stripped FCS, no antibiotics), and in all cases the final concentration of ethanol was 0.5%. The positive control was 1 nM estradiol. Positive and vehicle controls were run as eight replicate wells per plate, and compounds were tested in a dilution series comprising eight concentrations, each concentration tested in triplicate. As recommended by Wilson et al. two additional controls were also included on each plate: 1) vehicle control plus an antiestrogen, ICI 182,780 (1 µM), and 2) positive control plus ICI 182,780 (1 µM). […] A crude measure of toxicity was provided by comparing values for treatments that were not positive, with the value of the vehicle control. […] 24 hours after application of test and control solutions, a volume of Steady-Glo assay reagent (Promega) equal to the volume of culture media was added and plates were incubated for ten minutes, with shaking, to allow for cell lysis. Plates were then loaded into a plate reader (FLUOstar Optima, BMG Labtech) and incubated for a further ten minutes in the dark, followed by measurement of luminescence. To reduce variation, the temperature of the plate reader chamber was maintained at 27°C throughout.
# as §1
# Effect concentrations (ECx) were defined relative to the effects of the estradiol concentration used as the positive control, for example EC50 is the concentration producing an effect of 50% of the positive control (estradiol, 1 nM (ERLUX) or 25 nM (ESCREEN)).
# as §2, with “implicitly.” for “implicitly. However, if the individual concentrations ci are expressed as relative fractions pi to the total mixture concentration ECxMix, then equation 1 can be re-arranged to [drawing 2] (2) which allows the direct calculation of the mixture concentration that is expected to produce the mixture effect X. To form a prediction curve, equation 2 is iterated through for various effect levels resulting in sets of effects and their associated predicted mixture concentration which are then plotted to produce a graph of the effect prediction.”
# [3] = Homo sapiens, MCF7, read-out: Concentration Response Function θ^∧ max
# [4] = Homo sapiens, MCF7, read-out: Maxima at effect levels relative to that of estradiol (submaximal response)
# [5] = Homo sapiens, read-out: Concentration Response Function θ^∧ max
# [6] = Homo sapiens, read-out: Supramaximal response, of estradiol maxima
Compound,"EC10 ([1]; Homo sapiens, MCF7, 120 h) [nM]","EC25 ([1]; Homo sapiens, MCF7, 120 h) [nM]","Emax [1, 3] [%]","Emax [1, 4] [%]","EC10 ([2]; Homo sapiens, 24 h) [nM]","EC25 ([2]; Homo sapiens, 24 h) [nM]","Emax [2, 5] [%]","Emax [2, 6] [%]","EC10 ([1]; ESCREEN, concentration provoking 10% effect relative to positive control 25 nM estradiol, 120 hours) [nM]","EC25 ([1]; ESCREEN, concentration provoking 25% effect relative to positive control 25 nM estradiol, 120 hours) [nM]","Concentration Response Function θ^∧ max ([1]; ESCREEN, estimated maximal model asymptote, effect relative to positive control (25 nM estradiol))","EC10 ([2]; ERLUX, concentration producing 10% effect relative to positive control 1 nM estradiol, 24 hours) [nM]","EC25 ([2]; ERLUX, concentration producing 25% effect relative to positive control 1 nM estradiol, 24 hours) [nM]","Concentration Response Function θ^∧ max ([2]; ERLUX, estimated maximal model asymptote, effect relative to positive control (1 nM estradiol))"
"Cc1ccc(/C=C2/C(=O)C3(C)CCC2C3(C)C)cc1 (centres unmarked) [4MBC, 4-methylbenzylidene camphor]",899,2210,63,60 to 70,1810,5000,82,–,–,–,–,–,–,–
"Brc1ccc(Oc2c(Br)cc(Br)cc2Br)c(Br)c1 [BDE100, Brominated diphenyl ether-100]",704,2410,71,–,5360,12800,172,–,–,–,–,–,–,–
COc1ccc(C(=O)c2ccccc2)c(O)c1 [Benzophenone-3],1300,4310,63,60 to 70,2270,4610,177,150,–,–,–,–,–,–
CC(C)(c1ccc(O)cc1)c1ccc(O)cc1 [Bisphenol A],45.2,81.8,121,–,155,258,144,150,–,–,–,–,–,–
CCCCOC(=O)c1ccc(O)cc1 [Butylparaben],571,1320,101,–,497,881,331,300,–,–,–,–,–,–
O=c1oc2cc(O)ccc2c2oc3cc(O)ccc3c12 [Coumestrol],1.56,5,131,–,1.58,3.42,101,–,–,–,–,–,–,–
"C#C[C@]1(O)CC[C@H]2[C@@H]3CCc4cc(O)ccc4[C@H]3CC[C@@]21C [EE2, Ethinyl estradiol, reference compound]",0.000635,0.00181,114,–,0.000651,0.00132,105,–,–,–,–,–,–,–
OC[C@H](Cc1cccc(O)c1)[C@H](CO)Cc1cccc(O)c1 [Enterodiol],3850,7450,45,–,–,–,–,–,–,–,–,–,–,–
O=C1OC[C@H](Cc2cccc(O)c2)[C@H]1Cc1cccc(O)c1 [Enterolactone],4150,7220,139,–,3770,8180,104,–,–,–,–,–,–,–
"C[C@]12CC[C@@H]3c4ccc(O)cc4CC[C@H]3[C@@H]1CC[C@@H]2O [Estradiol, reference compound]",0.00112,0.00312,133,–,0.000653,0.00145,123,–,–,–,–,–,–,–
c1ccc2c(c1)-c1cccc3cccc-2c13 [Fluoranthene],33900,88500,38,–,60000,–,16,–,–,–,–,–,–,–
"CC1COCc2cc3c(cc21)C(C)(C)C(C)C3(C)C (centres unmarked) [Galaxolide, Galaxolide (HHCB)]",5390,12300,69,–,3930,7730,91,–,–,–,–,–,–,–
O=c1c(-c2ccc(O)cc2)coc2cc(O)cc(O)c12 [Genistein],4.61,13.6,93,–,12.4,19.6,148,200,–,–,–,–,–,–
COC(=O)c1ccc(O)cc1 [Methylparaben],7640,18000,79,–,8140,17100,206,–,–,–,–,–,–,–
O=C1C[C@@H](c2ccc(O)cc2)Oc2cc(O)cc(O)c21 [Naringenin],360,833,110,–,310,506,114,–,–,–,–,–,–,–
CCCOC(=O)c1ccc(O)cc1 [Propylparaben],997,2160,109,–,1300,2210,260,–,–,–,–,–,–,–
Tonalide (AHTN),–,–,–,–,–,–,–,–,1970,6130,0.46,3610,206000,0.28
